From ChEMBL document CHEMBL1641372 (Bioorg Med Chem Lett, 2011) come the findings set out here.

Bounds are passed on as bounds.

Data set [1] has as its target T1, 5-hydroxytryptamine receptor 3A (Homo sapiens, UniProt P46098).
T1 sequence (P46098 whole entry): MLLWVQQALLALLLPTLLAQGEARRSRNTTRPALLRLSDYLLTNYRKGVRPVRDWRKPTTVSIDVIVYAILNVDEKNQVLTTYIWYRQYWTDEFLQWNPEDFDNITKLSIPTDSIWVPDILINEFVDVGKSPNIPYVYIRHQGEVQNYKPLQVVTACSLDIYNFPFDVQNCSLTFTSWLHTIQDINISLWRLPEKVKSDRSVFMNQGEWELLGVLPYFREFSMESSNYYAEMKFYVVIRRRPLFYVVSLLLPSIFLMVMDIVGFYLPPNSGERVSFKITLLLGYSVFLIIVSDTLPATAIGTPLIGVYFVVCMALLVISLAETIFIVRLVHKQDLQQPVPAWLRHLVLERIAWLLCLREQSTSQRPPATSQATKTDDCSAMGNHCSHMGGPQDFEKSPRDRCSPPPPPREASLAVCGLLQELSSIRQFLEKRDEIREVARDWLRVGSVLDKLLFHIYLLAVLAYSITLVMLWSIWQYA
The data set can be described thus: Binding affinity to human 5HT3A receptor. Type of data set: single protein.

Data set [2] concerns the target T2, 5-hydroxytryptamine receptor 1A (Homo sapiens) (UniProt P08908).
T2 sequence (whole entry): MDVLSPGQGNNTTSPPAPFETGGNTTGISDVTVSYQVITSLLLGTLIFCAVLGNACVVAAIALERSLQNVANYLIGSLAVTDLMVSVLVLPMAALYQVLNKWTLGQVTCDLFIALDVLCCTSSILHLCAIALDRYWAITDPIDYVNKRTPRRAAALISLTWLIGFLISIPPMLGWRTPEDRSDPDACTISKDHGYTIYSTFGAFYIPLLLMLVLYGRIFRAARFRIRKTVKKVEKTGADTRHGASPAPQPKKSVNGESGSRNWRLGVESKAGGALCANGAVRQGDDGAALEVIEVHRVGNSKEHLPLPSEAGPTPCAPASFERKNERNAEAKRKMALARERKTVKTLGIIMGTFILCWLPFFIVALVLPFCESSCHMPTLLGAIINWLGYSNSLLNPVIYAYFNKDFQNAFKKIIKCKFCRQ
The data set can be described thus: Inhibition of 5HT1A receptor at 1 uM.

Data set [3] deals with 5-hydroxytryptamine receptor 4 (Homo sapiens) (UniProt Q13639). The experiment in a line: Inhibition of 5HT4 receptor at 1 uM.
A further data set has as its system Mus musculus. The experiment in a line: Partial agonist activity at 5HT3 receptor in po dosed mouse assessed inhibition of serotonin-induced bradycardia administered 1 hr before serotonin challenge by von Bezold-Jarisch reflex test. It is filed as functional.
The target of data set [4] is T1, 5-hydroxytryptamine receptor 3A. The experiment in a line: Partial agonist activity at human 5HT3A receptor expressed in HEK293 cells assessed as effect on serotonin-induced response. It is filed as functional, cell-based.
Another data set addresses Cytochrome P450 3A4 (Homo sapiens, UniProt P08684). The data set can be described thus: Inhibition of human CYP3A4. Type of data set: ADME.
The target in data set [5] is T1, 5-hydroxytryptamine receptor 3A. The data set can be described thus: Partial agonist activity at human 5HT3A receptor expressed in HEK293 cells assessed as decrease in 10 uM 5-chloroindole-induced increase in intracellular calcium release. It is filed as functional, cell-based. Background: Calcium assays in cells follow changes in intracellular calcium, usually with a dye or a luminescent sensor.

Data set [6] is described as follows: Intrinsic clearance in human liver microsomes assessed per mg of protein. It is filed as ADME, Microsome. A general note: Microsomes from liver hold many membrane-bound enzymes, among them those of drug oxidation.
Data set [7] in a line: Inhibition of human CYP450. It is filed as ADME.
The nature of data set [8]: Solubility of the compound at pH 7.4 phosphate buffered saline. Type of data set: physicochemical.

Sequence of Cytochrome P450 3A4 (P08684 whole entry): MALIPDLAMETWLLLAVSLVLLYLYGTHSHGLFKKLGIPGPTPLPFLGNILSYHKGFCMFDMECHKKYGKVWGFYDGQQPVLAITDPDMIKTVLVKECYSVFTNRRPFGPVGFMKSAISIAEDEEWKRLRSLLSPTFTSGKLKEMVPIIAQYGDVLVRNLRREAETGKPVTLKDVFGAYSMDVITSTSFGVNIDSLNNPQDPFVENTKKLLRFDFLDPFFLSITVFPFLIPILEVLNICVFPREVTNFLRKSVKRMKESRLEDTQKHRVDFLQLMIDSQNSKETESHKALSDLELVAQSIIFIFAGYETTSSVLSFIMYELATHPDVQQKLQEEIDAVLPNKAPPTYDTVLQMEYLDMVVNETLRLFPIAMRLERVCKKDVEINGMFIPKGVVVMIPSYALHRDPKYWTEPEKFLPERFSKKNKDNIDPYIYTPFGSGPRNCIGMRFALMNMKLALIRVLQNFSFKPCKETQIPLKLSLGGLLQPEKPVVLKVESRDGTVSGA
Sequence of 5-hydroxytryptamine receptor 4 (Homo sapiens) (Q13639 whole entry): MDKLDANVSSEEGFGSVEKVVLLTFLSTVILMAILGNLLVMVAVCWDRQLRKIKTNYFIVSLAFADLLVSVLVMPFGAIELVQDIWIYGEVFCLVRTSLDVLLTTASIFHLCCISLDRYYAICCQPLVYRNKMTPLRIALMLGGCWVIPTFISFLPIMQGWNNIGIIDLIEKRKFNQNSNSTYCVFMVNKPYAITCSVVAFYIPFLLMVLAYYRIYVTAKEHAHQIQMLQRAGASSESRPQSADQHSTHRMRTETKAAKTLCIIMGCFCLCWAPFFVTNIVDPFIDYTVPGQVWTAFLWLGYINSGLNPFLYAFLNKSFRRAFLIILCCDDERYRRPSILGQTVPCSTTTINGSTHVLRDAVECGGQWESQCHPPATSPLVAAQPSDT

The Ki is a measure of affinity in units of concentration, obtained from inhibition or displacement. Low readings indicate a stronger hold on the target, high ones a looser hold on the target. Regarding `CCn1nc2c3c(cccc31)C(=O)N([C@H]1CN3CCC1CC3)C2`, the Ki in data set [1] is 2 nM. This counts as single-digit nanomolar.
Broadly, the inhibition is the relative decrease from the control value, in per cent. The low end stands for little suppression, the high end for strong suppression. In the case of `O=C1c2cccc3[nH]nc(c23)CN1[C@@H]1CN2CCC1CC2`, the inhibition in data set [2] and in data set [3] was greater than 50% in each case.
The compound `Cn1nc2c3c(cccc31)C(=O)N([C@@H]1CN3CCC1CC3)C2` displayed a Ki in data set [1] of 0.7 nM.
The ED50 is the dose at which the effect has come halfway, by size or by number of responders. Low values mean an effect at a small dose, high ones a need for a large dose. In the case of `Cc1[nH]cnc1CN1CCc2c(c3ccccc3n2C)C1=O` [ALOSETRON], the ED50 with Mus musculus was found to be 0.02 mg/kg.
By EC50 is commonly meant the concentration needed to bring the measured effect to its halfway point. Usually IC50 stands for the point on the concentration scale where inhibition reaches its midpoint. Higher therefore signals lower potency. A word on the microsomal CLint: it is the rate of metabolic loss divided by the concentration. Low readings indicate slow turnover, high ones rapid turnover. For `O=C(N[C@H]1CN2CCC1CC2)c1c[nH]c2ccsc2c1=O` [PUMOSETRAG], the EC50 in data set [4] is 5.4 nM; in data set [5], 9.2 nM. Further, at Cytochrome P450 3A4, inhibition was half-maximal at 9300 nM (IC50). For the same compound, in data set [6], the microsomal CLint came to 24 µL/min/mg. Moreover, the 50% effect level in the data set with Mus musculus (ED50) was put at a dose of 0.96 mg/kg.
Consider `Cn1nc2c3c(cc(F)cc31)C(=O)N([C@H]1CN3CCC1CC3)C2`, for which the affinity in data set [1], expressed as Ki, was 2 nM.
Consider `CCn1nc2c3c(cccc31)C(=O)N([C@@H]1CN3CCC1CC3)C2`, for which the Ki in data set [1] was 1.6 nM.
On the same count and under the same terms, for `CC(C)Cn1nc2c3c(cccc31)C(=O)N([C@@H]1CN3CCC1CC3)C2` the value was 2.4 nM; for `Cn1cc2c3c(cccc31)C(=O)N([C@H]1CN3CCC1CC3)C2`, 0.9 nM.
Still for that read-out and setting: the same measure for `Cn1cc2c3c(cccc31)C(=O)N([C@@H]1CN3CCC1CC3)C2`: 0.7 nM; for `O=C1c2cccc3c2c(nn3Cc2ccccc2)CN1[C@H]1CN2CCC1CC2`: 7.1 nM.
On to `O=C1c2cccc3[nH]nc(c23)CN1[C@H]1CN2CCC1CC2`, for which the IC50 at Cytochrome P450 3A4 was less than 10000 nM; in data set [7], greater than 50000 nM. Besides, the inhibition in [2] and in data set [3] was greater than 50% in each case. The microsomal CLint in data set [6] was 7.3 µL/min/mg. In addition, the ED50 in the data set with Mus musculus was determined as 0.64 mg/kg.
By solubility is commonly meant how much of the substance goes into solution per volume. For `Cn1nc2c3c(cccc31)C(=O)N([C@H]1CN3CCC1CC3)C2`, the figures for the EC50 in [4] and in [5] were 12.6 nM and 6.9 nM, respectively. Further, the figures for the IC50 (against Cytochrome P450 3A4; in data set [7]) were less than 10000 nM and greater than 50000 nM, respectively. The compound further displayed a solubility in [8] greater than 500 µM. This compound returned a Ki in data set [1] of 1.7 nM. In addition, the microsomal CLint in [6] was determined as 3.8 µL/min/mg. Further, the ED50 in the data set on Mus musculus worked out at 0.25 mg/kg.
